Measured values published in patent US9480252B2, “Herbicidal compositions” (Syngenta Crop Protection LLC, priority 2007, dated 2016).

What was measured:
[1] = system: Brachiaria plantaginea; test: Glasshouse trial, control of Brachiaria, post-emergence test; assay type: in vivo; settings: TXP (where applied) 200 g ai/ha, 15 DAA
Experimental: (§1) A glasshouse trial was carried out to test the activity of mesotrione or the compound of formula I (each at 3 different rates) in combination with trinexapac-ethyl at 200 gai/ha against Brachiaria plantaginea. Brachiaria seeds were sown in standard potting mix in 50 cm plastic troughs. The adjuvant system was X-77 at 0.1% v/v in deionised water. 500 liters of herbicide/adjuvant system was used per hectare. General weed control was evaluated at 15 days after application (DAA) for the post-emergence test and 20DAA for the pre-emergence test. It is noted that all herbicides were applied at reduced field rates because herbicide effects are magnified in a glasshouse environment. Rates were chosen to give a 50 to 70% level of control with herbicides applied alone as this allows for detection of any synergistic effect when tank mixtures are used.

[2] = system: Brachiaria plantaginea; test: Glasshouse trial, control of Brachiaria, pre-emergence test; assay type: in vivo; settings: TXP (where applied) 200 g ai/ha, 20 DAA
Experimental: as §1

Compound	% Control at different herbicide rates ([1]; herbicide rate 30 g ai/ha)	% Control at different herbicide rates ([1]; herbicide rate 60 g ai/ha)	% Control at different herbicide rates ([1]; herbicide rate 125 g ai/ha)	% Control at different herbicide rates ([2]; herbicide rate 30 g ai/ha)	% Control at different herbicide rates ([2]; herbicide rate 60 g ai/ha)	% Control at different herbicide rates ([2]; herbicide rate 125 g ai/ha)
COCCOCc1nc(C(F)(F)F)ccc1C(=O)C1=C(O)C2CCC(C2)C1=O (stereo not drawn) [Formula I]	60%	70%	80%	30%	80%	90%
CS(=O)(=O)c1ccc(C(=O)C2C(=O)CCCC2=O)c([N+](=O)[O-])c1 [Mesotrione, mesotrione]	30%	70%	70%	30%	50%	80%
CCOC(=O)C1CC(=O)C(=C(O)C2CC2)C(=O)C1 (stereo not drawn) [TXP, trinexapac-ethyl]	0%	0%	0%	0%	0%	0%
